In paper PMC12040169 (PLOS Biology, 2025):

experiment: in vitro; conditions: human, hela cells, % viability

First: CC(=O)Nc1ccc(N2CCN(CCO)CC2)cc1OCCCOc1ccccc1 [CBK074317T]
Second: COc1ccccc1OCc1ccc(C(=O)N2CCN(c3cccc(C(F)(F)F)c3)CC2)o1 [CBK074417]
The viability at 28.5 h, 10 µM of the first is higher: 110% for the first, 62.7% for the second.

First: CCC1CCCCN1C(=O)c1cc2cc(Cl)ccc2[nH]1 (stereo not drawn) [CBK074329]
Second: CCOC(=O)C1CCCN(Cc2ccc3c(c2)OCO3)C1 (stereo not drawn) [CBK074569]
The viability at 28.5 h, 10 µM of the first is higher: 102% for the first, 97.7% for the second.

First: COc1ccc(C(=O)N2CCC(Cc3ccccc3)CC2)cc1 [CBK074337]
Second: O=C1c2cccc3cccc(c23)C(=O)N1CC1CCN(CC(O)COCc2ccccc2)CC1 (stereo not drawn) [CBK074407C]
The viability at 28.5 h, 10 µM of the first is higher: 95.8% for the first, 84.4% for the second.

Going from `COc1ccc(C(=O)N2CCC(C)CC2)cc1[N+](=O)[O-]` [CBK074341] to `COc1cccc(CN2CCN(C(=O)c3cccc(F)c3)CC2)c1OC` [CBK074527], the viability at 28.5 h, 10 µM falls from 93.3% to 85.1%.

Compared with `O=C1CC(NCc2ccc3c(c2)OCO3)C(=O)N1c1ccc(OC(F)(F)Cl)cc1` (stereo not drawn) [CBK074357], `O=C1CC(N2CCN(Cc3ccc4c(c3)OCO4)CC2)C(=O)N1c1ccc(Cl)cc1` (stereo not drawn) [CBK074402] is higher in viability at 28.5 h, 10 µM: 87.7% for the first, 103% for the second.

Going from `O=C(/C=C\c1ccc(Cl)cc1Cl)N1CCN(Cc2ccc3c(c2)OCO3)CC1` [CBK074371] to `O=C(c1sc2cc(Cl)ccc2c1Cl)N1CCN(Cc2ccc3c(c2)OCO3)CC1` [CBK074431], the viability at 28.5 h, 10 µM rises from 97.3% to 101%.

Compared with `Cc1cc(OCC(O)CN2CCN(Cc3ccc4c(c3)OCO4)CC2)cc(C)c1Cl` (stereo not drawn) [CBK074374], `Cc1cc(Cl)ccc1OCC(O)CN1CCN(Cc2ccc3c(c2)OCO3)CC1` (stereo not drawn) [CBK074383] is lower in viability at 28.5 h, 10 µM: 93.4% for the first, 92.3% for the second.

Going from `COc1cccc(CN2CCN(C(=O)c3ccco3)CC2)c1OC` [CBK074380] to `COc1ccc(CN2CCN(C(=O)c3cccs3)CC2)cc1OC` [CBK074410], the viability at 28.5 h, 10 µM rises from 87.4% to 104%.

Compared with `COc1ccc(CCNc2ncnc3sc4c(c23)CCCCC4)cc1OC` [CBK074384], `COc1ccc(C(=O)c2sc3nc(C)c(C)c(C)c3c2N)cc1OC` [CBK074427] is lower in viability at 28.5 h, 10 µM: 89.9% for the first, 72.7% for the second.

Compared with `O=C(CN1CCN(Cc2ccc3c(c2)OCO3)CC1)Nc1ccc(SC(F)(F)F)cc1` [CBK074385], `Cc1ccc(NC(=O)CN2CCN(Cc3ccc4c(c3)OCO4)CC2)cc1` [CBK074403] is lower in viability at 28.5 h, 10 µM: 108% for the first, 102% for the second.

Going from `COc1cc(CNc2ccc(N3CCOCC3)c(Cl)c2)ccc1OCc1ccccc1F` [CBK074392] to `COc1cccc(CNc2cccc(C(=O)O)c2)c1OCc1ccc(Cl)cc1Cl` [CBK074424], the viability at 28.5 h, 10 µM falls from 93.6% to 91.3%.

Going from `N#Cc1c(Nc2cccc(C(F)(F)F)c2)sc(C(=O)c2ccc3c(c2)OCO3)c1N` [CBK074399] to `COc1ccc(-n2c(CNCc3ccc4c(c3)OCO4)nc3ccccc3c2=O)cc1` [CBK074522], the viability at 28.5 h, 10 µM rises from 89.2% to 102%.

First: O=C(CCN1C(=O)c2cccc3cccc(c23)C1=O)N1CCN(Cc2ccc3c(c2)OCO3)CC1 [CBK074420]
Second: CS(=O)(=O)N(CC(=O)N1CCN(Cc2ccc3c(c2)OCO3)CC1)c1cccc(F)c1 [CBK074572]
The viability at 28.5 h, 10 µM of the first is lower: 96.2% for the first, 102% for the second.

First: COc1ccc(CCNc2oc(COc3ccccc3)nc2C#N)cc1 [CBK074469]
Second: Nc1nc(NCCc2ccccc2)nc(-c2cc(Cl)ccc2O)n1 [CBK074551]
The viability at 28.5 h, 10 µM of the first is lower: 90.2% for the first, 91.8% for the second.

Compared with `Nc1nc(-c2ccccc2)nn1C(=O)CCc1ccccc1` [CBK074471], `O=C(NCc1ccccc1)c1ccc(NCc2ccccc2)c([N+](=O)[O-])c1` [CBK074547] is lower in viability at 28.5 h, 10 µM: 95.9% for the first, 92.9% for the second.

Compared with `CCOc1cccc(CNc2ccc(O)cc2)c1OCc1ccccc1Cl` [CBK074473], `COc1cccc(CNc2ccc(N3CCCCC3)cc2)c1OCc1cccs1` [CBK074531] is higher in viability at 28.5 h, 10 µM: 87.7% for the first, 96.5% for the second.

First: CCOC(=O)COc1ccc(S(=O)(=O)N2CCN(Cc3ccc4c(c3)OCO4)CC2)cc1 [CBK074492]
Second: COc1ccc(S(=O)(=O)N2CCN(Cc3ccc4c(c3)OCO4)CC2)c2ccccc12 [CBK074521]
The viability at 28.5 h, 10 µM of the first is higher: 101% for the first, 96.4% for the second.

Compared with `O=C(CN1CCN(C/C=C/c2ccccc2)CC1)Nc1ccc(C2CCCCC2)cc1` [CBK074497], `O=C1CC(N2CCN(Cc3ccc4c(c3)OCO4)CC2)C(=O)N1c1ccc(Br)cc1` (stereo not drawn) [CBK074544] is lower in viability at 28.5 h, 10 µM: 112% for the first, 89.9% for the second.

First: COc1cc(CN2CCN(S(=O)(=O)c3ccc(Cl)cc3)CC2)cc(OC)c1OC [CBK074499]
Second: COc1cc(CN2CCN(C(=O)c3cccc(Cl)c3)CC2)cc(OC)c1OC [CBK074530]
The viability at 28.5 h, 10 µM of the first is lower: 91.3% for the first, 97.1% for the second.

Going from `CCOc1cccc(N2C(=O)c3cc(Br)ccc3NC2c2ccc(OC)c(OC)c2)c1` (stereo not drawn) [CBK074502] to `COc1cc(-c2nc(S(=O)(=O)c3ccccc3)c(N3CCOCC3)o2)cc(OC)c1OC` [CBK074539], the viability at 28.5 h, 10 µM rises from 88.4% to 90.1%.

Compared with `Nc1nc(NCc2ccccc2)nc(-c2cc(Cl)ccc2O)n1` [CBK074526], `CCS(=O)(=O)N1CCN(Cc2ccc3c(c2)OCO3)CC1` [CBK074545] is lower in viability at 28.5 h, 10 µM: 102% for the first, 92.2% for the second.
